# Assay results published in article PMC8197275, “Novel Tdp1 Inhibitors Based on Adamantane Connected with Monoterpene Moieties via Heterocyclic Fragments” (Molecules, 2021).
# Columns and labels:
# [1] = target: Tdp1 (Homo sapiens, UniProt Q9NUW8); assay: Tdp1 cleavage activity, fluorophore quencher-coupled DNA-biosensor, real-time; type: biochemical; parameters: inferred from the pET 16B vector and Ni-chelating resin purification; made in house; conditions: recombinant Tdp1 1.5 nM, 50 nM biosensor; read-out: IC50 (Tdp1 activity inhibition at 50%)
# Chain of Tdp1 (Q9NUW8 whole entry): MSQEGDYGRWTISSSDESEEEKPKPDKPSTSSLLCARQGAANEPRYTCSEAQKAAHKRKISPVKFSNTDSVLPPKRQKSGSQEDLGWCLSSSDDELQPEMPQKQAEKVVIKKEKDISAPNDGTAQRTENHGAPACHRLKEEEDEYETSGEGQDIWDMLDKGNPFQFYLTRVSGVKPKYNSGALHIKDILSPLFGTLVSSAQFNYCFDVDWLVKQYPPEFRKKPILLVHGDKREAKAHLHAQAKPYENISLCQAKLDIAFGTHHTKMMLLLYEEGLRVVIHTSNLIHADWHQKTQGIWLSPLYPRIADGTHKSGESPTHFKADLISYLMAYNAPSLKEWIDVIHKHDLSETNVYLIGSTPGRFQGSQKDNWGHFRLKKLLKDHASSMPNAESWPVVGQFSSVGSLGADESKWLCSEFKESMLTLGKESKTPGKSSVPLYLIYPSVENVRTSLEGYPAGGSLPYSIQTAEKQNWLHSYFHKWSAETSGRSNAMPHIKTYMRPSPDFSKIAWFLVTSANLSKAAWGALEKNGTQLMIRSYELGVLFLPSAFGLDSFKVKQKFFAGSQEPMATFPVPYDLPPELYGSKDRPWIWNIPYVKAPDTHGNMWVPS
# Experimental: The recombinant Tdp1 was purified to homogeneity by chromatography on Ni-chelating resin and phosphocellulose P11 as described, using plasmid pET 16B-Tdp1, kindly provided by Dr. K.W. Caldecott (University of Sussex, United Kingdom). Tdp1 activity was detected as described in the work. Briefly, we measured the fluorescence intensity after quencher removal from a fluorophore quencher–coupled DNA oligonucleotide catalyzed by Tdp1. The reaction was carried out at different concentrations of inhibitors. The control samples contained 1% DMSO. The reaction mixtures contained Tdp1 buffer (50 mM Tris-HCl pH 8.0, 50 mM NaCl, and 7 mM β-mercaptoethanol), 50 nM biosensor, and an inhibitor being tested. The reaction was started by the addition of purified Tdp1 (1.5 nM). The biosensor (5′-[FAM] AAC GTC AGGGTC TTC C [BHQ]-3′) was synthesized in the Laboratory of Biomedical Chemistry at the Institute of Chemical Biology and Fundamental Medicine (Novosibirsk, Russia).
# The reactions were incubated on a POLARstar OPTIMA fluorimeter (BMG LAB-TECH, GmbH) to measure fluorescence every 55 s (ex. 485 nm/em. 520 nm) during the linear phase (here, data are from minute 0 to minute 8). The values of IC50 were determined using a six-point concentration response curve in a minimum of three independent experiments, and were calculated using MARS Data Analysis 2.0 (BMG LABTECH).
# [2] = tested on: HCT-116 cells; assay: Sensitizing of HCT-116 cells to topotecan by Tdp1 inhibitors; type: cell-based, human
# Experimental: (§1) The potential for sensitizing the cancer cell lines to topotecan using the Tdp1 inhibitors was investigated using the MTT assay. Neutralizing the enzymatic activity of Tdp1 by blocking access to its catalytic site using a small molecule should sensitize the cytotoxic potential of topotecan, since the complex of Top1 with DNA cannot be unraveled. […] Nontoxic concentrations of the adamantane derivatives (5 μM) were used for the HeLa cell line; the dose response for topotecan was measured and the corresponding CC50 values were derived, and the results are shown in Figure 4 for 20c and in Table 2 for all the derivatives.
# (§2) For HeLa cells, increased cytotoxicity was seen when the adamantanes and topotecan were combined. […] The combination index (CI) for different concentrations of topotecan and 20c at 5 μM was in the range 0.49–0.82, and at 10 μM of 20c, it was 0.23–0.78. This indicates a synergistic effect of topotecan and 20c. The CI values were calculated with the CompuSyn version 1.0 software. For the HCT-116 cells, the synergistic effects of the compounds were different than for the HeLa cells. […] The CI plot at a different fraction affected (Fa) was determined for topotecan (5, 15, 150, 500 and 1500 nM) and 20g (1, 3, 10, 20 μM). The CI values for most of the combinations correspond to a synergistic effect (CI < 1, see Figure S3 in the Supplementary Materials).
# (§3) The human cervical cancer HeLa cells were grown in Iscove’s modified Dulbecco’s medium (IMDM) with 40 μg/mL gentamicin, 50 IU/mL penicillin, 50 μg/mL streptomycin (MP Biomedicals), and 10% of fetal bovine serum (Biolot) in a 5% CO2 atmosphere. Human colon adenocarcinoma HCT-116, rectum adenocarcinoma SW837, and human embryo kidney HEK293A cell lines were cultured in DMEM medium (Invitrogen) supplemented with 10% fetal bovine serum (FBS) (Invitrogen), penicillin (100 units/mL), and streptomycin (100 μg/mL), at 37 °C, 5% CO2 in a humid atmosphere. After the formation of a 30–50% monolayer, the tested compounds were added to the medium. The volume of the added reagents was 1/100 of the total volume of the culture medium, and the amount of DMSO was 1% of the final volume. Control cells were grown in the presence of 1% DMSO. The cell culture was monitored for 3 days.
# (§4) The medium was removed, and the dark blue crystals of formazan were dissolved in 100 μL of isopropanol. The absorbance at 570 nm (peak) and 620 nm (baseline) was determined using a microplate reader Multiscan FC (Thermo Fisher Scientific Corporation). All concentrations were performed in triplicate. The values are given as mean ± standard deviation (S.D.) values, and all measurements were repeated three times.
# [3] = tested on: HeLa cells; assay: Sensitizing of HeLa cells to topotecan by Tdp1 inhibitors; type: cell-based, human; conditions: human, 3 days, 5 µM
# Experimental: as §1, §2, §3
# (§5) The cytotoxicity of the compounds to HeLa and HEK293A cell lines was examined using the EZ4U Cell Proliferation and Cytotoxicity Assay (Biomedica, Austria), according to the manufacturer’s protocols.
# [4] = Cytotoxicity, MTT test, HCT-116; type: cell-based; conditions: human, HCT-116 cells; colorectal HCT-116, 72 h MTT
# Experimental: (§6) The cytotoxicity of compounds was investigated using HeLa (cervical cancer), SW837 and HCT-116 (colon cancers) cell lines, and the results are shown in Table 1 and Figure S2 in the Supplementary Materials. […] In general, the HeLa cell line was less sensitive to the inhibitors than the HCT-116 and SW837 cells.
# as §3, §4
# [5] = Cytotoxicity, MTT test, SW837; type: cell-based; conditions: human, SW837 cells; colorectal SW837, 72 h MTT
# Experimental: as §6, §3, §4
# [6] = Cytotoxicity, EZ4U Cell Proliferation and Cytotoxicity Assay, HeLa; type: cell-based; conditions: human, HeLa cells, cervical cancer HeLa
# Experimental: as §6, §3, §5
# [7] = tested on: HEK293A cells; assay: Cytotoxicity on noncancerous cell line HEK293A (EZ4U); type: cell-based, human; conditions: concentrations up to 30 μM; data not shown
# Experimental: as §6, §3, §5
smiles,measurement,setting,value
"CC1(C)[C@H]2CC=C(CCSc3n[nH]c(C45CC6CC(CC(C6)C4)C5)n3)[C@@H]1C2 [20g, 5-(Adamantan-1-yl)-3-((2-((1R,5S)-6,6-dimethylbicyclo[3.1.1]hept-2-en-2-yl)ethyl)thio)-1H-1,2,4-triazole]",IC50,[1],0.57 ± 0.14 µM
same,combination index (CI) with topotecan,"[2]; HCT-116, topotecan 5-1500 nM, inhibitor 1, 3, 10, 20 μM, most of the combinations",< 1
same,HCT116 CC50 of topotecan with Tdp1 inhibitor,"[2]; human, 72 h, 20 µM",235.8 (20) nM
same,HeLa CC50 of topotecan with Tdp1 inhibitor,[3],2.6 µM
same,CC50 at 72 h,[4],34 ± 6 µM
same,CC50 at 72 h,[5],40 ± 4 µM
same,CC50 at 3 days,[6],74 ± 17 µM
same,"effect on cell viability, HEK293A",[7],no effect on cell viability
